molecular target: T1, human TrkA receptor (Homo sapiens, UniProt P04629); experiment: DiscoverX PathHunter TrkA functional assay (NGF-stimulated U2OS cells); format: cell-based; conditions: U2OS cells expressing human TrkA-PK, Shc1-EA and p75NTR; compound 1 h, then NGF at ~80% of maximal response for 3 h; luminescence
T1 construct: host or cells: U2OS cells (PathHunter cell line)
T1 sequence (P04629 33-796): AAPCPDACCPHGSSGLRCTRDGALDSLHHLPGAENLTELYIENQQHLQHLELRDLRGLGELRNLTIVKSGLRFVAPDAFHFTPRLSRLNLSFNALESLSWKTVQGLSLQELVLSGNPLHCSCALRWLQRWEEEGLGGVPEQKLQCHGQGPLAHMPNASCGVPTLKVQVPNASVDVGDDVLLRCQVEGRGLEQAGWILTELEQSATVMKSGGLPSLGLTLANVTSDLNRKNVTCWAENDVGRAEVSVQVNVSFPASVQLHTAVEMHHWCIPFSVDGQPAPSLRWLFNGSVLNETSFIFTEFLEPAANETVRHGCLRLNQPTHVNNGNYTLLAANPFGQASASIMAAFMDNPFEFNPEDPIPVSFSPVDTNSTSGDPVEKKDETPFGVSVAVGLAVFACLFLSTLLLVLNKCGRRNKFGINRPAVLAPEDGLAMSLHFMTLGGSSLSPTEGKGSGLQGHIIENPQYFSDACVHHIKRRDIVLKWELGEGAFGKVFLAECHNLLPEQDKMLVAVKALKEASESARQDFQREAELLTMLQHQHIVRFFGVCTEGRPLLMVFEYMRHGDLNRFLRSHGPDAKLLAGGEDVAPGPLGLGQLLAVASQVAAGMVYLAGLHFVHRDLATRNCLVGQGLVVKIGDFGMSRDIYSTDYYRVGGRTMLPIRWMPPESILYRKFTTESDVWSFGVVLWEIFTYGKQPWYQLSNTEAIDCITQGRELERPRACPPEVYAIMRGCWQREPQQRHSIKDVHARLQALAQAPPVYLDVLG

Row | IC50 [nM] | Compound
1 | 0.79 | C[C@@H](O)c1ccn2c(NC(=O)c3ccc(C(F)(F)F)c(-c4ccn(C)n4)c3)c(-c3ccccc3)nc2c1 (single isomer, unassigned) [Compound 42]
2 | 1.9 | CC(O)c1ccc2nc(-c3ccccc3)c(NC(=O)c3ccc(C(F)(F)F)c(-c4ccn(C)n4)c3)n2c1 (single isomer, unassigned) [Compound 48, (R or S)-N-[6-(1-hydroxyethyl)-2-phenylimidazo[1,2-a]pyridin-3-yl]-3-(1-methyl-1H-pyrazol-3-yl)-4-(trifluoromethyl) benzamide]
3 | 0.51 | Cn1ccc(-c2cc(C(=O)Nc3c(-c4ccccc4)nc4cc(C(O)CO)ccn34)ccc2C(F)(F)F)n1 (single isomer, unassigned) [Compound 49, (R or S)-N-[7-(1,2-dihydroxyethyl)-2-phenylimidazo[1,2-a]pyridin-3-yl]-3-(1-methyl-1H-pyrazol-3-yl)-4-(trifluoromethyl) benzamide]
4 | 3.5 | CC(c1ccn2c(NC(=O)c3cc(-c4ccn(C)n4)c(C(F)(F)F)cc3F)c(-c3ccccc3)nc2c1)N(C)C (single isomer, unassigned) [Compound 51, (R or S)-N-{7-[1-(dimethylamino)ethyl]-2-phenylimidazo[1,2-a]pyridin-3-yl}-2-fluoro-5-(1-methyl-1H-pyrazol-3-yl)-4-(trifluoromethyl) benzamide]
5 | 4.9 | Cn1ccc(-c2cc(C(=O)Nc3c(-c4ccccc4)nc4ccc(C(O)CO)cn34)ccc2C(F)(F)F)n1 (single isomer, unassigned) [Compound 52, (R or S)-N-[6-(1,2-dihydroxyethyl)-2-phenylimidazo[1,2-a]pyridin-3-yl]-3-(1-methyl-1H-pyrazol-3-yl)-4-(trifluoromethyl) benzamide]
6 | 0.4 | CC(O)c1ccn2c(NC(=O)c3cc(-c4ccn(C)n4)c(C(F)(F)F)cc3F)c(-c3ccccc3)nc2c1 (single isomer, unassigned) [Compound 54, (R or S)-2-fluoro-N-[7-(1-hydroxyethyl)-2-phenylimidazo[1,2-a]pyridin-3-yl]-5-(1-methyl-1H-pyrazol-3-yl)-4-(trifluoromethyl) benzamide]
7 | 0.37 | CC(O)c1ccn2c(NC(=O)c3cc(-c4ccn(C)n4)c(C(F)(F)F)cc3F)c(-c3ccccc3)nc2c1 (single isomer, unassigned) [Compound 55, (R or S)-2-fluoro-N-[7-(1-hydroxyethyl)-2-phenylimidazo[1,2-a]pyridin-3-yl]-5-(1-methyl-1H-pyrazol-3-yl)-4-(trifluoromethyl) benzamide]
8 | 1 | CC(c1ccn2c(NC(=O)c3ccc(C(F)(F)F)c(-c4ccn(C)n4)c3)c(-c3ccccc3)nc2c1)N(C)C (single isomer, unassigned) [Compound 56, (R or S)-N-{7-[1-(dimethylamino)ethyl]-2-phenylimidazo[1,2-a]pyridin-3-yl}-3-(1-methyl-1H-pyrazol-3-yl)-4-(trifluoromethyl) benzamide]
9 | 1.1 | CC(O)c1ccn2c(NC(=O)c3cc(-c4ncccn4)c(C(F)(F)F)cc3F)c(-c3ccccc3)nc2c1 (single isomer, unassigned) [Compound 57, (R or S)-2-fluoro-N-[7-(1-hydroxyethyl)-2-phenylimidazo[1,2-a]pyridin-3-yl]-5-pyrimidin-2-yl-4-(trifluoromethyl) benzamide]
10 | 0.92 | CC(O)c1ccn2c(NC(=O)c3cc(-c4ncccn4)c(C(F)(F)F)cc3F)c(-c3ccccc3)nc2c1 (single isomer, unassigned) [Compound 58, (R or S)-2-fluoro-N-[7-(1-hydroxyethyl)-2-phenylimidazo[1,2-a]pyridin-3-yl]-5-pyrimidin-2-yl-4-(trifluoromethyl) benzamide]
11 | 2.4 | Cc1coc(-c2cc(C(=O)Nc3c(-c4ccccc4)nc4cc(C(C)O)ccn34)ccc2C(F)(F)F)n1 (single isomer, unassigned) [Compound 61, (R or S)-N-[7-(1-hydroxyethyl)-2-phenylimidazo[1,2-a]pyridin-3-yl]-3-(4-methyl-1,3-oxazol-2-yl)-4-(trifluoromethyl) benzamide]
12 | 1.5 | Cc1coc(-c2cc(C(=O)Nc3c(-c4ccccc4)nc4cc(C(C)O)ccn34)ccc2C(F)(F)F)n1 (single isomer, unassigned) [Compound 62, (R or S)-N-[7-(1-hydroxyethyl)-2-phenylimidazo[1,2-a]pyridin-3-yl]-3-(4-methyl-1,3-oxazol-2-yl)-4-(trifluoromethyl) benzamide]
13 | 1.6 | Cn1ccc(-c2cc(C(=O)Nc3c(-c4ccccc4)nc4cc(C(O)C(F)(F)F)ccn34)ccc2C(F)(F)F)n1 (single isomer, unassigned) [Compound 63, (R or S)-3-(1-methyl-1H-pyrazol-3-yl)-N-[2-phenyl-7-(2,2,2-trifluoro-1-hydroxyethyl)imidazo[1,2-a]pyridin-3-yl]-4-(trifluoromethyl) benzamide]
14 | 1.1 | Cn1ccc(-c2cc(C(=O)Nc3c(-c4ccccc4)nc4cc(C(O)C(F)(F)F)ccn34)ccc2C(F)(F)F)n1 (single isomer, unassigned) [Compound 64, (R or S)-3-(1-methyl-1H-pyrazol-3-yl)-N-[2-phenyl-7-(2,2,2-trifluoro-1-hydroxyethyl)imidazo[1,2-a]pyridin-3-yl]-4-(trifluoromethyl) benzamide]
15 | 12 | Cn1ccc(-c2cc(C(=O)Nc3c(-c4ccccc4)nc4ccc(C(O)C(F)(F)F)cn34)ccc2C(F)(F)F)n1 (single isomer, unassigned) [Compound 65, (R or S)-3-(1-methyl-1H-pyrazol-3-yl)-N-[2-phenyl-6-(2,2,2-trifluoro-1-hydroxyethyl)imidazo[1,2-a]pyridin-3-yl]-4-(trifluoromethyl) benzamide]
16 | 4.5 | Cn1ccc(-c2cc(C(=O)Nc3c(-c4ccccc4)nc4ccc(C(O)C(F)(F)F)cn34)ccc2C(F)(F)F)n1 (single isomer, unassigned) [Compound 66, (R or S)-3-(1-methyl-1H-pyrazol-3-yl)-N-[2-phenyl-6-(2,2,2-trifluoro-1-hydroxyethyl)imidazo[1,2-a]pyridin-3-yl]-4-(trifluoromethyl) benzamide]
17 | 5.1 | CC(O)c1ccn2c(NC(=O)c3ccc(C(F)(F)F)c(-c4ncccn4)c3)c(-c3ccccc3)nc2c1 (single isomer, unassigned) [Compound 67, (R or S)-N-[7-(1-hydroxyethyl)-2-phenylimidazo[1,2-a]pyridin-3-yl]-3-pyrimidin-2-yl-4-(trifluoromethyl) benzamide]
18 | 1.4 | CC(O)c1ccn2c(NC(=O)c3cc(-c4cc[nH]n4)c(C(F)(F)F)cc3F)c(-c3ccccc3)nc2c1 (single isomer, unassigned) [Compound 73, (R or S)-2-fluoro-N-[7-(1-hydroxyethyl)-2-phenylimidazo[1,2-a]pyridin-3-yl]-5-(1H-pyrazol-3-yl)-4-(trifluoromethyl) benzamide]
19 | 1.8 | CC(O)c1ccn2c(NC(=O)c3cc(-c4cc[nH]n4)c(C(F)(F)F)cc3F)c(-c3ccccc3)nc2c1 (single isomer, unassigned) [Compound 74, (R or S)-2-fluoro-N-[7-(1-hydroxyethyl)-2-phenylimidazo[1,2-a]pyridin-3-yl]-5-(1H-pyrazol-3-yl)-4-(trifluoromethyl) benzamide]
20 | 4 | CC(O)c1ccn2c(NC(=O)c3ccc(C(F)(F)F)c(-c4ccn(C(F)F)n4)c3)c(-c3ccccc3)nc2c1 (single isomer, unassigned) [Compound 77, (R or S)-3-[1-(difluoromethyl)-1H-pyrazol-3-yl]-N-[7-(1-hydroxyethyl)-2-phenylimidazo[1,2-a]pyridin-3-yl]-4-(trifluoromethyl) benzamide]
21 | 4.8 | CC(O)c1ccn2c(NC(=O)c3ccc(C(F)(F)F)c(-c4ccn(C(F)F)n4)c3)c(-c3ccccc3)nc2c1 (single isomer, unassigned) [Compound 78, (R or S)-3-[1-(difluoromethyl)-1H-pyrazol-3-yl]-N-[7-(1-hydroxyethyl)-2-phenylimidazo[1,2-a]pyridin-3-yl]-4-(trifluoromethyl) benzamide]
22 | 6.5 | CC(O)c1ccc2[nH]c(-c3ccccc3)c(NC(=O)c3cc(-c4ncccn4)c(C(F)(F)F)cc3F)c2c1 (single isomer, unassigned) [Compound 94, (R or S)-2-fluoro-N-[5-(1-hydroxyethyl)-2-phenyl-1H-indol-3-yl]-5-pyrimidin-2-yl-4-(trifluoromethyl) benzamide]
23 | 4.9 | CC(O)c1ccc2[nH]c(-c3ccccc3)c(NC(=O)c3cc(-c4ncccn4)c(C(F)(F)F)cc3F)c2c1 (single isomer, unassigned) [Compound 95, (R or S)-2-fluoro-N-[5-(1-hydroxyethyl)-2-phenyl-1H-indol-3-yl]-5-pyrimidin-2-yl-4-(trifluoromethyl) benzamide]
24 | 1.9 | CC(O)c1ccn2nc(-c3ccccc3)c(NC(=O)c3ccc(C(F)(F)F)c(-c4ccn(C)n4)c3)c2c1 (single isomer, unassigned) [Compound 97, (R or S)-N-[5-(1-hydroxyethyl)-2-phenylpyrazolo[1,5-a]pyridin-3-yl]-3-(1-methyl-1H-pyrazol-3-yl)-4-(trifluoromethyl) benzamide]
25 | 3.3 | CC(O)c1ccn2nc(-c3ccccc3)c(NC(=O)c3ccc(C(F)(F)F)c(-c4ccn(C)n4)c3)c2c1 (single isomer, unassigned) [Compound 98, (R or S)-N-[5-(1-hydroxyethyl)-2-phenylpyrazolo[1,5-a]pyridin-3-yl]-3-(1-methyl-1H-pyrazol-3-yl)-4-(trifluoromethyl) benzamide]
26 | 1.7 | CC(O)c1ccn2nc(-c3ccccc3)c(NC(=O)c3cc(-c4ccn(C)n4)c(C(F)(F)F)cc3F)c2c1 (single isomer, unassigned) [Compound 106, (R or S)-2-fluoro-N-[5-(1-hydroxyethyl)-2-phenylpyrazolo[1,5-a]pyridin-3-yl]-5-(1-methyl-1H-pyrazol-3-yl)-4-(trifluoromethyl) benzamide]
